# Article PMC5267425, “Identification of small molecule modulators of HIV-1 Tat and Rev protein accumulation” (Retrovirology, 2017)
# Test system: cellular gene expression in HeLa rtTA HIV∆Mls cells
smiles,measurement,value
"Cc1cc(NCc2cccnc2)n2ncc(-c3ccc(Cl)cc3)c2n1 [Compound 791, 3-(4-chlorophenyl)-5-methyl-N-(3-pyridinylmethyl)pyrazolo[1,5-a]pyrimidin-7-amine]",AARS Mean fold change,2.833
same,ABCC3 Mean fold change,2.692
same,ABCG1 Mean fold change,3.311
same,ABHD6 Mean fold change,1.566
same,AC004490.2 Mean fold change,2.204
same,AC006486.1 expression fold change,0.690
same,AC008763.1 expression fold change,0.679
same,AC009133.2 Mean fold change,1.588
same,AC010442.1 Mean fold change,1.579
same,AC013356.3 expression fold change,1.345
same,AC037487.1 expression fold change,1.347
same,AC068020.2 Mean fold change,2.561
same,AC092295.7 expression fold change,0.786
same,AC135352.1 Mean fold change,1.465
same,AC138904.2 Mean fold change,2.431
same,ACADVL Mean fold change,1.427
same,ACAP3 expression fold change,0.896
same,ACER2 expression fold change,1.385
same,ACN9 expression fold change,1.202
same,ACOT9 expression fold change,0.729
same,ACTN1 expression fold change,0.801
same,ADD1 expression fold change,0.880
same,ADI1 expression fold change,0.759
same,ADO expression fold change,1.398
same,AGPAT2 expression fold change,0.738
same,AGPAT9 Mean fold change,1.761
same,AGXT2L2 Mean fold change,1.839
same,AHCTF1 expression fold change,1.155
same,AIDA expression fold change,1.199
same,AIFM1 expression fold change,1.118
same,AKIRIN2 expression fold change,1.270
same,ALDH2 Mean fold change,1.928
same,ALDOC expression fold change,0.728
same,ALG5 expression fold change,1.288
same,ALKBH8 expression fold change,1.320
same,ALX1 expression fold change,1.051
same,ANKHD1 expression fold change,1.136
same,ANKRD40 expression fold change,1.260
same,ANKRD50 expression fold change,1.377
same,ANKS1A expression fold change,0.869
same,ANXA5 expression fold change,0.844
same,ANXA6 expression fold change,0.632
same,AP2M1 expression fold change,0.841
same,AP3S2 expression fold change,1.386
same,AP000926.1 Mean fold change,1.726
same,APBA3 expression fold change,1.129
same,APOBEC3B expression fold change,0.520
same,ARF1 expression fold change,0.787
same,ARF3 expression fold change,0.882
same,ARG2 Mean fold change,3.609
same,ARHGAP11A expression fold change,0.778
same,ARHGAP26 Mean fold change,1.819
same,ARHGEF2 Mean fold change,2.222
same,ARHGEF4 Mean fold change,1.690
same,ARL4D expression fold change,1.406
same,ARL17B Mean fold change,1.427
same,ARMC10 expression fold change,1.383
same,ARNTL Mean fold change,1.815
same,ARPC5 expression fold change,0.694
same,ARSJ expression fold change,1.309
same,ASB7 expression fold change,1.181
same,ASB8 expression fold change,1.184
same,ASCC1 expression fold change,1.134
same,ASNS Mean fold change,5.898
same,ASNSD1 expression fold change,1.208
same,ATF4 Mean fold change,1.683
same,ATG4B expression fold change,1.240
same,ATG12 expression fold change,1.178
same,ATG16L1 expression fold change,1.132
same,ATIC expression fold change,1.115
same,ATP2B1 Mean fold change,1.479
same,ATP5H expression fold change,1.145
same,ATP6AP1L Mean fold change,1.979
same,ATP6V0A1 expression fold change,0.795
same,ATP6V1B2 expression fold change,1.261
same,ATP8B1 expression fold change,0.527
same,ATXN7L2 expression fold change,1.076
same,AUP1 expression fold change,1.231
same,AVL9 expression fold change,1.338
same,AXIN1 expression fold change,1.266
same,B3GNT1 expression fold change,0.674
same,B3GNT5 Mean fold change,2.008
same,B4GALT5 expression fold change,1.380
same,BAT3 expression fold change,0.841
same,BAZ1B expression fold change,1.159
same,BCAR1 expression fold change,0.869
same,BCAR3 Mean fold change,1.528
same,BCL7A expression fold change,1.302
same,BCOR expression fold change,0.835
same,BCORL1 expression fold change,0.826
same,BEST1 Mean fold change,1.710
same,BHLHB9 expression fold change,0.836
same,BICD1 expression fold change,1.280
same,BIVM expression fold change,1.241
same,BMP2K expression fold change,1.246
same,BMPR1B expression fold change,0.758
same,BRWD2 expression fold change,1.126
same,BST2 expression fold change,0.606
same,BTRC expression fold change,1.086
same,BUD13 expression fold change,1.160
same,C1D expression fold change,0.907
same,C1orf27 expression fold change,1.263
same,C1orf43 Mean fold change,1.578
same,C1orf103 expression fold change,1.312
same,C1orf109 expression fold change,1.133
same,C1orf115 expression fold change,0.712
same,C1orf131 expression fold change,1.232
same,C2orf18 Mean fold change,2.057
same,C2orf44 expression fold change,1.212
same,C2orf49 expression fold change,1.330
same,C2orf60 Mean fold change,1.552
same,C3orf19 expression fold change,1.302
same,C3orf59 expression fold change,0.622
same,C4orf23 expression fold change,1.124
same,C4orf27 expression fold change,1.269
same,C4orf32 Mean fold change,1.456
same,C4orf43 expression fold change,1.083
same,C5orf13 expression fold change,0.675
same,C5orf15 expression fold change,0.799
same,C5orf30 expression fold change,1.191
same,C5orf37 expression fold change,1.270
same,C5orf45 expression fold change,1.325
same,C5orf51 expression fold change,1.347
same,C6orf48 Mean fold change,2.042
same,C6orf145 expression fold change,0.730
same,C7orf23 expression fold change,1.243
same,C7orf25 expression fold change,1.354
same,C7orf27 expression fold change,0.879
same,C7orf42 expression fold change,0.864
same,C7orf44 expression fold change,1.193
same,C9orf3 expression fold change,0.575
same,C9orf6 expression fold change,1.317
same,C9orf46 expression fold change,1.230
same,C9orf114 expression fold change,1.133
same,C9orf163 expression fold change,0.820
same,C10orf76 expression fold change,0.797
same,C10orf114 expression fold change,0.622
same,C11orf17 Mean fold change,1.495
same,C11orf57 expression fold change,1.379
same,C11orf73 expression fold change,1.274
same,C12orf35 expression fold change,1.357
same,C12orf41 Mean fold change,1.427
same,C12orf65 expression fold change,1.231
same,C12orf73 expression fold change,1.310
same,C13orf23 expression fold change,1.356
same,C14orf79 Mean fold change,1.679
same,C14orf104 expression fold change,1.167
same,C14orf147 expression fold change,0.683
same,C14orf167 Mean fold change,1.721
same,C15orf61 expression fold change,1.088
same,C16orf63 expression fold change,1.203
same,C16orf72 expression fold change,1.363
same,C17orf75 expression fold change,1.209
same,C17orf80 expression fold change,1.234
same,C18orf19 expression fold change,1.208
same,C18orf25 expression fold change,1.336
same,C18orf45 expression fold change,1.218
same,C19orf28 expression fold change,0.696
same,C19orf55 expression fold change,1.216
same,C19orf57 Mean fold change,2.062
same,C20orf29 expression fold change,0.759
same,C20orf177 expression fold change,1.123
same,C22orf23 Mean fold change,1.568
same,CA5B Mean fold change,1.804
same,CALD1 expression fold change,0.520
same,CAP2 expression fold change,0.518
same,CAPN1 expression fold change,0.764
same,CARS Mean fold change,2.332
same,CASC5 expression fold change,0.767
same,CASP8 expression fold change,1.182
same,CAT Mean fold change,1.598
same,CAV2 expression fold change,0.581
same,CC2D2A expression fold change,0.869
same,CCBL2 expression fold change,1.248
same,CCDC22 expression fold change,1.134
same,CCDC25 expression fold change,1.260
same,CCDC40 Mean fold change,1.891
same,CCDC41 expression fold change,1.182
same,CCDC55 expression fold change,1.136
same,CCDC85C expression fold change,0.665
same,CCDC91 Mean fold change,1.516
same,CCDC92 expression fold change,1.319
same,CCDC99 expression fold change,0.607
same,CCDC102A expression fold change,0.591
same,CCDC150 expression fold change,0.840
same,CCNB1IP1 Mean fold change,1.940
same,CCNJ expression fold change,1.250
same,CCNT2 expression fold change,1.170
same,CD276 expression fold change,0.827
same,CDADC1 expression fold change,1.201
same,CDC42EP3 expression fold change,0.641
same,CDK1 expression fold change,0.737
same,CDK4 expression fold change,1.239
same,CDK8 expression fold change,1.082
same,CDK17 expression fold change,1.247
same,CDKL1 expression fold change,0.840
same,CDKN2C expression fold change,0.598
same,CEBPG Mean fold change,3.507
same,CEP70 expression fold change,0.860
same,CES2 Mean fold change,1.537
same,CGN expression fold change,0.519
same,CGRRF1 Mean fold change,1.453
same,CHAC1 Mean fold change,6.989
same,CHCHD4 expression fold change,1.327
same,CHN1 expression fold change,0.798
same,CHN2 expression fold change,1.345
same,CLCN2 expression fold change,1.278
same,CLCN5 Mean fold change,1.584
same,CLEC2D Mean fold change,1.905
same,CLIC4 Mean fold change,1.468
same,CLPTM1L expression fold change,0.747
same,CLUAP1 Mean fold change,1.416
same,CNN2 expression fold change,0.712
same,CNNM3 expression fold change,0.809
same,CNOT4 expression fold change,1.191
same,COG1 expression fold change,1.328
same,COG8 expression fold change,1.183
same,COL4A3BP Mean fold change,1.572
same,COMMD1 expression fold change,0.832
same,COMMD4 expression fold change,0.856
same,COPS7B Mean fold change,1.473
same,COX7A2L expression fold change,1.194
same,COX7A2 expression fold change,0.949
same,COX19 expression fold change,1.369
same,CPD Mean fold change,1.588
same,CREB1 expression fold change,1.234
same,CRTC3 expression fold change,0.714
same,CSE1L expression fold change,0.867
same,CSGALNACT2 expression fold change,1.343
same,CSNK1A1 Mean fold change,1.528
same,CSNK2A1 expression fold change,1.245
same,CSRNP2 expression fold change,1.269
same,CSRP2BP Mean fold change,1.435
same,CSRP2 expression fold change,0.574
same,CST3 expression fold change,1.145
same,CTC-241N9.1 Mean fold change,1.850
same,CTD-2526A2.1 Mean fold change,1.524
same,CTH Mean fold change,2.646
same,CTNND1 expression fold change,0.683
same,CTSL1 Mean fold change,1.489
same,CTTNBP2 expression fold change,0.629
same,CUEDC2 expression fold change,1.278
same,CWC25 expression fold change,1.169
same,CXADR expression fold change,1.102
same,CYFIP1 expression fold change,0.887
same,CYP2R1 Mean fold change,1.818
same,CYP2S1 expression fold change,1.098
same,CYTH3 expression fold change,0.536
same,DAB2 expression fold change,0.623
same,DAG1 expression fold change,0.608
same,DAGLB expression fold change,0.867
same,DBF4B expression fold change,0.760
